Experimental findings from patent publication US7674801B2 (AstraZeneca AB, priority 2006, dated 2010) are described below.

Sequence of S. aureus (SAU) GyrB ATPase (P0A0K8 whole entry): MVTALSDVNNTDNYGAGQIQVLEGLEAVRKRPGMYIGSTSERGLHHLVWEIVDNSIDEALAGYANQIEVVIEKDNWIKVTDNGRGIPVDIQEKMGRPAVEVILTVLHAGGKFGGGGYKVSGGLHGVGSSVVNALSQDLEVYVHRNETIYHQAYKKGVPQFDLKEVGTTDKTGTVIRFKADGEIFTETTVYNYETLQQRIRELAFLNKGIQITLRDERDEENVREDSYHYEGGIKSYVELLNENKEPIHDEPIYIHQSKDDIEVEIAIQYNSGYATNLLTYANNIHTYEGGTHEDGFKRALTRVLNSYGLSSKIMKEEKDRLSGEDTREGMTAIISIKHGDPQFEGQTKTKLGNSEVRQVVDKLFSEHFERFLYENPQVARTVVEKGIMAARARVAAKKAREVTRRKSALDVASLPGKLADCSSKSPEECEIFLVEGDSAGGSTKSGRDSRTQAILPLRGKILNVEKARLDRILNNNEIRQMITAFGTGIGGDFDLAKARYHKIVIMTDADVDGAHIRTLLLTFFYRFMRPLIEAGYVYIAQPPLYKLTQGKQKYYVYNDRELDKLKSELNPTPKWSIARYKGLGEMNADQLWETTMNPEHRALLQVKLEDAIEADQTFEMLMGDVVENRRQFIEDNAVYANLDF
Sequence of S. aureus (SAU) GyrB ATPase (P0AES4 whole entry, further chain): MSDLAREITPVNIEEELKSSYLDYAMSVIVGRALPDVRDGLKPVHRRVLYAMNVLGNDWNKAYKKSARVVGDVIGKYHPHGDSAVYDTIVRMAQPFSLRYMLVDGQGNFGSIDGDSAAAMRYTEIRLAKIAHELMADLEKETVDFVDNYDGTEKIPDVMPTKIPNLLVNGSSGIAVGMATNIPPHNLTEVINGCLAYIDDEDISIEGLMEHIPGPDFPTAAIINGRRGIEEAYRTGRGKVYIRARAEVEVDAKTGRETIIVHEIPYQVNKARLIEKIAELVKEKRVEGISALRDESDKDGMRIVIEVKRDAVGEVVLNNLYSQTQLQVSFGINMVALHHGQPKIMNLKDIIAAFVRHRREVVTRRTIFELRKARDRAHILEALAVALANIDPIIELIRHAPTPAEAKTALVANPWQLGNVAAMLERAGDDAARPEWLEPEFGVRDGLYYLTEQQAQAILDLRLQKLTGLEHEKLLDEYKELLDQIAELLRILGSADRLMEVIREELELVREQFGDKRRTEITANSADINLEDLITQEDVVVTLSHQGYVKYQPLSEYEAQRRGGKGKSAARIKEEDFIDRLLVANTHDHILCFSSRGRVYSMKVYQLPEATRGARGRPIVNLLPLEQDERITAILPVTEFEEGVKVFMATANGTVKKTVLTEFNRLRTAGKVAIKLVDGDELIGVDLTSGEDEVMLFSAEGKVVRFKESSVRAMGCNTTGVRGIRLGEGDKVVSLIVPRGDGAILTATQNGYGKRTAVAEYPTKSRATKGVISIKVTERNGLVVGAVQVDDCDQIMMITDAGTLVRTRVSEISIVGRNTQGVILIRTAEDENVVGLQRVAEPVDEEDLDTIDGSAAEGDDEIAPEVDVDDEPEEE

For one assay, the target named is S. aureus (SAU) GyrB ATPase (Staphylococcus aureus, UniProt P0A0K8). The experiment in a line: S. aureus GyrB ATPase inhibition, ammonium molybdate/malachite green phosphate detection assay. Type of assay: biochemical. Conditions: 10 compound concentrations; 500 μM ATP. On the procedure:
Compounds were tested for inhibition of GyrB ATPase activity using an ammonium molybdate/malachite green-based phosphate detection assay (Lanzetta, P. A., L. J. Alvarez, P. S. Reinach, and O. A. Candia, 1979, 100: 95-97). Assays were performed in multiwell plates in 100 μl reactions containing: 50 mM Hepes buffer pH 7.5, 75 mM ammonium acetate, 8.0 mM magnesium chloride, 1.0 mM ethylenediaminetetraacetic acid, 5% glycerol, 2 mM 1,4-Dithio-DL-threitol, 400 nM bovine serum albumin, 5 μg/ml sheared salmon sperm DNA, 1.25 nM E. coli GyrA, 1.25 nM S. aureus GyrB, 500 μM ATP, and compound in dimethylsulfoxide. Reactions were quenched with 150 μl of ammonium molybdate/malachite green detection reagent containing 1.2 mM malachite green hydrochloride, 8.5 mM ammonium molybdate tetrahydrate, and 1 M hydrochloric acid. Plates were read in an absorbance plate reader at 650 nm and percent inhibition values were calculated using dimethylsulfoxide (2%)-containing reactions as 0% inhibition and novobiocin-containing (2 μM) reactions as 100% inhibition controls. Compound potency was based on IC50 measurements determined from reactions performed in the presence of 10 different compound concentrations.
As a reminder, the IC50 is the concentration needed to halve the response being measured. A high value points to weaker potency. The compound `CCNC(=O)Nc1ccc(-c2ncc(C(=O)O)s2)cn1` [Example 17, 2-(6-{[(ethylamino)carbonyl]amino}pyridin-3-yl)-1,3-thiazole-5-carboxylic acid] gave an IC50 of 266 nM.

On to `CCCCNC(=O)c1nc(-c2ccc(NC(=O)NCC)nc2)sc1C(N)=O` [Example 39, N^4-Butyl-2-(6-{[(ethylamino)carbonyl]amino}pyridin-3-yl)-1,3-thiazole-4,5-dicarboxamide], for which half-maximal inhibition (IC50) required 14 nM.

Staying with this assay, now noted: compound concentration 5 μM (values marked *).
For `CCNC(=O)Nc1ccc(-c2nc(C(=O)NC3CC3)c(C(=O)NOC)s2)cn1` [Example 35, N^4-Cyclopropyl-2-(6-{[(ethylamino)carbonyl]amino}pyridin-3-yl)-N^5-methoxy-1,3-thiazole-4,5-dicarboxamide], the inhibition at 5 µM turned out to be 96.7%.

On to `CCNC(=O)Nc1ccc(-c2ncc(C(=O)NOC)s2)cn1` [Example 34, 2-(6-{[(Ethylamino)carbonyl]amino}pyridin-3-yl)-N-methoxy-1,3-thiazole-5-carboxamide], for which the inhibition at 5 µM came out at 42.5%.

The same assay, now with this note: read-out: S. aureus (SAU) GyrB ATPase % Inhibition, compound concentration 12.5 μM.
As for `CCNC(=O)Nc1ccc(-c2ccc3c(c2)c(=O)c(C(=O)O)cn3CCN2CCOCC2)cn1` [Example 48, 6-(6-(3-ethylureido)pyridin-3-yl)-1-(2-morpholinoethyl)-4-oxo-1,4-dihydroquinoline-3-carboxylic acid], the inhibition at 12.5 µM came to 101%.

With `CCNC(=O)Nc1ccc(-c2nc(C(N)=O)c(C(N)=O)s2)cn1` [Example 152, 2-(6-{[(ethylamino)carbonyl]amino}pyridin-3-yl)-1,3-thiazole-4,5-dicarboxamide], the inhibition at 12.5 µM stood at 69.4%.

As for `CCNC(=O)Nc1ccc(-c2nc(-c3nccn3CCOC)c(C(=O)OC)s2)cn1` [Example 71, Methyl 2-(6-{[(ethylamino)carbonyl]amino}pyridin-3-yl)-4-[1-(2-methoxyethyl)-1H-imidazol-2-yl]-1,3-thiazole-5-carboxylate], the inhibition at 12.5 µM worked out at 93%.

With `CCNC(=O)Nc1ccc(-c2nc(C(=O)O)cs2)cn1` [Example 18, 2-(6-{[(Ethylamino)carbonyl]amino}pyridin-3-yl)-1,3-thiazole-4-carboxylic acid], the inhibition at 12.5 µM came out at 101%.

Regarding `CCNC(=O)Nc1nc(-c2cccc(C(=O)O)c2)cs1` [Example 142, 3-(2-{[(ethylamino)carbonyl]amino}-1,3-thiazol-4-yl)benzoic acid], the inhibition at 12.5 µM is 0.68%.

In the case of `CCNC(=O)Nc1cc(-c2nc(C(F)(F)F)cs2)c(-c2cncc(C(N)=O)c2)cn1` [Example 121, 6′-{[(Ethylamino)carbonyl]amino}-4′-[4-(trifluoromethyl)-1,3-thiazol-2-yl]-3,3′-bipyridine-5-carboxamide], the inhibition at 12.5 µM worked out at 81.8%.

Consider `CCNC(=O)Nc1ccc(-c2c[nH]c(=O)c(C(=O)O)c2)cn1` [Example 51, 5-(6-(3-ELthylureido)pyridin-3-yl)-2-oxo-1,2-dihydropyridine-3-carboxylic acid], for which the inhibition at 12.5 µM stood at 62.1%.

With `CCNC(=O)Nc1ccc(-c2nc(C(C)=O)c(C(=O)O)s2)cn1` [Example 27, 4-Acetyl-2-(6-{[(ethylamino)carbonyl]amino}pyridin-3-yl)-1,3-thiazole-5-carboxylic acid], the inhibition at 12.5 µM was found to be 99.1%.

On to `CCCCn1cc(C(=O)O)c(=O)c2cc(-c3ccc(NC(=O)NCC)nc3)ccc21` [Example 47, 1-Butyl-6-(6-(3-ethylureido)pyridin-3-yl)-4-oxo-1,4-dihydroquinoline-3-carboxylic acid], for which the inhibition at 12.5 µM worked out at 91.7%.

For `CCNC(=O)Nc1ccc(-c2nc(C(=O)NC(C)C)c(C(=O)N(C)C)s2)cn1` [Example 67], the inhibition at 12.5 µM was found to be 92.5%.

As for `CCC(C)NC(=O)Nc1cc(-c2nc(C(F)(F)F)cs2)c(-c2cncc(C(=O)NC)c2)cn1` (stereo not drawn) [Example 130, 6′-{[(Sec-butylamino)carbonyl]amino}-N-methyl-4′-[4-(trifluoromethyl)-1,3-thiazol-2-yl]-3,3′-bipyridine-5-carboxamide], the inhibition at 12.5 µM came out at 98.7%.

Regarding `CCNC(=O)Nc1ccc(-c2ncc(C(N)=O)s2)cn1` [Example 37, 2-(6-{[(Ethylamino)carbonyl]amino}pyridin-3-yl)-1,3-thiazole-5-carboxamide], the inhibition at 12.5 µM was 98.9%.

On to `CCNC(=O)Nc1ccc(-c2nc(C(=O)OCC)cs2)cn1` [Example 2, Ethyl 2-(6-{[(ethylamino)carbonyl]amino}pyridin-3-yl)-1,3-thiazole-4-carboxylate], for which the inhibition at 12.5 µM is 99.1%.

For the compound `CCCCNC(=O)c1nc(-c2cnc(NC(=O)NCC)cc2-c2ccccc2)sc1C(=O)O` [Example 98, 4-[(Butylamino)carbonyl]-2-(6-{[(ethylamino)carbonyl]amino}-4-phenylpyridin-3-yl)-1,3-thiazole-5-carboxylic acid], the inhibition at 12.5 µM was determined as 99.3%.

Take `CCNC(=O)Nc1ccc(-c2nc3cccc(C(=O)OCC)c3s2)cn1` [Example 4, Ethyl 2-(6-{[(ethylamino)carbonyl]amino}pyridin-3-yl)-1,3-benzothiazole-7-carboxylate]: the inhibition at 12.5 µM worked out at 84%.

Take `CCNC(=O)Nc1ccc(-c2ncc(C(=O)O)s2)cn1` [Example 17, 2-(6-{[(ethylamino)carbonyl]amino}pyridin-3-yl)-1,3-thiazole-5-carboxylic acid]: the inhibition at 12.5 µM came out at 99.1%.

Turning to `CCNC(=O)Nc1ncc(-c2ncc(C(=O)O)s2)cn1` [Example 30, 2-(2-{[(Ethylamino)carbonyl]amino}pyrimidin-5-yl)-1,3-thiazole-5-carboxylic acid], the inhibition at 12.5 µM is 62.9%.

For `CCNC(=O)Nc1ccc(-c2nc(C(=O)NC3CC3)c(C(=O)O)s2)cn1` [Example 25, 4-[(Cyclopropylamino)carbonyl]-2-(6-{[(ethylamino)carbonyl]amino}pyridin-3-yl)-1,3-thiazole-5-carboxylic acid], the inhibition at 12.5 µM was 99.5%.

On to `CCNC(=O)Nc1cc(-c2ccccc2)c(-c2cncc(C(N)=O)c2)cn1` [Example 114, 6′-{[(Ethylamino)carbonyl]amino}-4′-phenyl-3,3′-bipyridine-5-carboxamide], for which the inhibition at 12.5 µM was 105%.

On to `CCNC(=O)Nc1ccc(-c2nc3cccc(C(=O)O)c3s2)cn1` [Example 20, 2-(6-{[(Ethylamino)carbonyl]amino}pyridin-3-yl)-1,3-benzothiazole-7-carboxylic acid], for which the inhibition at 12.5 µM amounted to 98.4%.

Turning to `CCNC(=O)Nc1cc(-c2nc(C(F)(F)F)cs2)c(-c2cncc(C(=O)OCC)c2)cn1` [Example 83, Ethyl 6′-{[(ethylamino)carbonyl]amino}-4′-[4-(trifluoromethyl)-1,3-thiazol-2-yl]-3,3′-bipyridine-5-carboxylate], the inhibition at 12.5 µM is 86.9%.

Turning to `CCCCNC(=O)c1nc(-c2cnc(NC(=O)NCC)cc2-c2nc(CC)cs2)sc1C(=O)O` [Example 150, 4-[(butylamino)carbonyl]-2-[6-{[(ethylamino)carbonyl]amino}-4-(4-ethyl-1,3-thiazol-2-yl)pyridin-3-yl]-1,3-thiazole-5-carboxylic acid], the inhibition at 12.5 µM is 100%.

`CCNC(=O)Nc1cc(-c2nc(C(F)(F)F)cs2)c(-c2cncc(C(=O)O)c2)cn1` [Example 101, 6′-{[(Ethylamino)carbonyl]amino}-4′-[4-(trifluoromethyl)-1,3-thiazol-2-yl]-3,3′-bipyridine-5-carboxylic acid]: the inhibition at 12.5 µM came out at 98.3%.

In the case of `CCNC(=O)Nc1nc(-c2ccc(C(=O)OC)cc2)cs1` [Example 41, Methyl 4-(2-{[(ethylamino)carbonyl]amino}-1,3-thiazol-4-yl)benzoate], the inhibition at 12.5 µM is 26.9%.

Turning to `CCNC(=O)Nc1cc(-c2nc(C(C)(C)C)cs2)c(-c2cncc(C(=O)OCC)c2)cn1` [Example 141, ethyl 4′-(4-tert-butyl-1,3-thiazol-2-yl)-6′-{[(ethylamino)carbonyl]amino}-3,3′-bipyridine-5-carboxylate], the inhibition at 12.5 µM was 99.2%.

In the case of `CCNC(=O)Nc1cc(-c2nc(CC)cs2)c(-c2cncc(C(N)=O)c2)cn1` [Example 119, 6′-{[(Ethylamino)carbonyl]amino}-4′-(4-ethyl-1,3-thiazol-2-yl)-3,3′-bipyridine-5-carboxamide], the inhibition at 12.5 µM amounted to 103%.

In the case of `CCCCNC(=O)c1nc(-c2ccc(NC(=O)NCC)nc2)sc1C(N)=O` [Example 39, N^4-Butyl-2-(6-{[(ethylamino)carbonyl]amino}pyridin-3-yl)-1,3-thiazole-4,5-dicarboxamide], the inhibition at 12.5 µM stood at 99%.

On to `CCNC(=O)Nc1cc(-c2cccc(C(=O)OCC)c2)ccn1` [Example 137, ethyl 3-(2-{[(ethylamino)carbonyl]amino}pyridin-4-yl)benzoate], for which the inhibition at 12.5 µM was determined as 86.9%.

Take `CCNC(=O)Nc1cc(-c2nc(C(F)(F)F)cs2)c(-c2cncc(C(=O)N[C@@H](C)COC)c2)cn1` [Example 124, 6′-{[(Ethylamino)carbonyl]amino}-N-[(1S)-2-methoxy-1-methylethyl]-4′-[4-(trifluoromethyl)-1,3-thiazol-2-yl]-3,3′-bipyridine-5-carboxamide]: the inhibition at 12.5 µM stood at 95.1%.

In the case of `CCNC(=O)Nc1ccc(-c2nc(-c3nccn3C)c(C(=O)OC)s2)cn1` [Example 75, Methyl 2-(6-{[(ethylamino)carbonyl]amino}pyridin-3-yl)-4-(1-methyl-1H-imidazol-2-yl)-1,3-thiazole-5-carboxylate], the inhibition at 12.5 µM was determined as 93.5%.

Take `CCNC(=O)Nc1cc(-c2cccc(C(=O)O)c2)ccn1` [Example 143, 3-(2-{[(ethylamino)carbonyl]amino}pyridin-4-yl)benzoic acid]: the inhibition at 12.5 µM came to 99.1%.

`CCNC(=O)Nc1ccc(-c2nc(C(=O)N[C@@H](C)COC)c(C(N)=O)s2)cn1` [Example 117, 2-(6-{[(Ethylamino)carbonyl]amino}pyridin-3-yl)-N^4-[(1S)-2-methoxy-1-methylethyl]-1,3-thiazole-4,5-dicarboxamide]: the inhibition at 12.5 µM came to 101%.
